The values that follow come from ChEMBL document CHEMBL1150940, “New melampolides from Schkuhria schkuhrioides” (1998).

The structures appear in SMILES notation. In brackets after ≈: the same amount, converted by molar mass.

The nature of assay [1]: Cytotoxicity against human UISO cells. The settings on record: read-out: ED50 (the source's name). It is filed as functional.
Assay [2] can be described thus: Cytotoxicity against human COLON cells. It is filed as functional. As to conditions: read-out: ED50 (the source's name).

Regarding `C=C1C(=O)O[C@@H]2/C=C(\C)CC/C=C(/C=O)C[C@@H](O)[C@@H]12`, the figures for the EC50 in assay [1] and in assay [2] were 1.82 µg/mL (≈ 6.94 µM) and 0.9 µg/mL (≈ 3.43 µM), respectively.
